Test results as given in US20100329971A1, “NOVEL HYDROXY RADICAL GENERATION METHOD, AND ANTI-VIRAL MATERIAL UTILIZING HYDROXYL RADICAL GENERATED BY THE METHOD” (MOCHIGASE CO., LTD., priority 2008, published 2010).
Marks after values point to notes of the source that are not given here.

Legend:
[1] = Amount of generated hydroxyl radicals under shaded condition or room light, HPF reagent (Example 14); settings: measured 1 hour after preparation
[2] = Amount of generated hydroxyl radicals using combinations of calcium hydroxide, magnesium oxide and magnesium hydroxide (Example 17); settings: left shaded for 72 hours; total 1% by weight; only calcium hydroxide = 100%
Experimental: Specifically, each reagent was mixed as described below to prepare a specimen to be measured using a suspension of a metal oxide and/or a hydroxide in a manner similar to Example 15. HPF reagent (Daiichi Pure Chemicals Co., Ltd.): 0.1 μL 0.5 M phosphoric acid buffer (pH 7.0): 20 μL Pure water: 49.9 μL Each suspension: 30 μL Table 7 indicates the concentrations and amounts of metal oxide and/or hydroxide in each specimen to be measured. [table]

[3] = Amount of generated hydroxyl radicals using metal oxides and hydroxides, HPF reagent (Example 15); settings: left shaded for 1 hour; 100% = 0.1% titanium oxide irradiated with room light 30 minutes
[4] = Quantification of hydroxyl radical production by HPF fluorescence intensity (Examples 13 and 18); settings: HPF 5 μM, room temperature 15 minutes; for Amount of generated radicals: 0.1 M phosphoric acid buffer, fluorescence intensity
[5] = Duration of hydroxyl radical generation, HPF reagent (Example 16); settings: shaded, 100% = 0.1% titanium oxide irradiated with room light 30 minutes
spike proteins = spike proteins (Severe acute respiratory syndrome coronavirus, UniProt P59594)
[6] = Shaded, 100% = 0.1% titanium oxide irradiated 30 minutes

Structure (SMILES)	Amount of generated hydroxyl radicals % of activity in Ca(OH)2 [2]	Amount of generated hydroxyl radicals (% of control) [3]	Amount of generated radicals [4]	Amount of generated hydroxyl radicals (% of control) After 1 hour [5]	Amount of generated hydroxyl radicals (% of control) After 12 hours [5]	other results
[O]=[Ti]=[O] [0.1% titanium oxide, titanium oxide]	–	–	–	–	–	Amount of generated hydroxyl radicals ([1]; Irradiated with room light for 30 minutes then shaded, this value assumed to be 100%): 100^1) %; Amount of generated hydroxyl radicals [1, 6]: 3.92%
[Ca+2].[OH-].[OH-] [Calcium hydroxide (1%), calcium hydroxide]	100.00 % of activity in Ca(OH)2	14.27 % of control	6236	14.27 % of control	47.49 % of control	–
[Mg+2].[OH-].[OH-] [Magnesium hydroxide (1%), magnesium hydroxide]	144.14 % of activity in Ca(OH)2	26.17 % of control	11907	26.17 % of control	62.18 % of control	Amount of generated hydroxyl radicals [1, 6]: 28.33%
[O]=[Mg] [Magnesium oxide (1%), magnesium oxide, reference compound]	77.84 % of activity in Ca(OH)2	15.07 % of control	3918	15.07 % of control	34.15 % of control	–
[K+].[OH-] [Potassium hydroxide (1%), potassium hydroxide]	–	2.88 % of control	–	–	–	–
[Na+].[OH-] [Sodium hydroxide (1%), sodium hydroxide]	–	3.29 % of control	–	–	–	–
O=C([O-])c1ccccc1O.[Na+] [sodium salicylate]	–	–	–	–	–	bands corresponding to spike proteins, electrophoresis without a reducing agent (spike proteins): recovery of bands corresponding to spike proteins was confirmed
[Mg+2].[OH-].[OH-] [specimen No. 7, magnesium hydroxide]	–	–	–	–	–	amounts of generated radicals (rank order) ([4]; comparison of specimens Nos. 7, 8 and 3): specimen No. 7>specimen No. 8>specimen No. 3
